Assay results as given in the NIST ThermoML archive (doi:10.1016/j.jct.2018.09.037).
Where “and” joins values, the source holds several entries; their conditions need not be identical. Equal values may be shown once. Numbers after ± are expanded uncertainties.

What was measured:
[1] = 100 kPa, Liquid, Electromagnetic levitation / mass taken directly, volume taken from sample image
[2] = xn = mol fraction of the nth substance listed; details: 100 kPa, Liquid, Electromagnetic levitation / mass taken directly, volume taken from sample image

[Cu] [copper]
[1]
Details	mass density [kg/m3]
1371 K	7884 ± 110
1385 K	7849 ± 110
1400 K	7875 ± 120
1432 K	7821 ± 120
1435 K	7819 ± 120
1437 K	7806 ± 120
1441 K	7827 ± 120
1456 K	7799 ± 120
1460 K	7828 ± 120
1461 K	7826 ± 120
1489 K	7770 ± 120
1507 K	7792 ± 120
1510 K	7755 ± 120
1578 K	7716 ± 120
1624 K	7673 ± 120
1625 K	7665 ± 120
1679 K	7628 ± 120

[Cu] [copper] + [Pd]
[2], x2 = 0
Details	mass density [kg/m3]
1371 K	7884 ± 110
1385 K	7849 ± 110
1400 K	7875 ± 120
1432 K	7821 ± 120
1435 K	7819 ± 120
1437 K	7806 ± 120
1441 K	7827 ± 120
1456 K	7799 ± 120
1460 K	7828 ± 120
1461 K	7826 ± 120
1489 K	7770 ± 120
1507 K	7792 ± 120
1510 K	7755 ± 120
1578 K	7716 ± 120
1624 K	7673 ± 120
1625 K	7665 ± 120
1679 K	7628 ± 120

[Pd] [palladium]
[1]
Details	mass density [kg/m3]
1790 K	10670 ± 170
1795 K	10672 ± 170
1796 K	10652 ± 170
1802 K	10686 ± 170
1809 K	10670 ± 170
1820 K	10677 ± 180
1831 K	10627 ± 180
1843 K	10654 ± 180
1856 K	10601 ± 180
1878 K	10558 ± 180
1889 K	10592 ± 180
1890 K	10575 ± 180
1917 K	10529 ± 180
1935 K	10478 ± 180
1951 K	10465 ± 180

[Pd] [palladium] + [Cu]
[2]
Details	mass density [kg/m3]
1374 K, x1 = 0.25	8847 ± 260
1421 K, x1 = 0.25	8805 ± 260
1469 K, x1 = 0.25	8762 ± 260
1523 K, x1 = 0.25	8711 ± 260
1523 K, x1 = 0.5	9468 ± 500
1532 K, x1 = 0.5	9456 ± 500
1562 K, x1 = 0.5	9412 ± 490
1590 K, x1 = 0.25	8663 ± 260
1617 K, x1 = 0.5	9371 ± 490
1653 K, x1 = 0.5	9329 ± 490
1654 K, x1 = 0.75	9987 ± 310
1662 K, x1 = 0.5	9329 ± 490
1678 K, x1 = 0.75	9964 ± 310
1685 K, x1 = 0.25	8540 ± 260
1708 K, x1 = 0.75	9936 ± 310
1718 K, x1 = 0.5	9281 ± 490
1753 K, x1 = 0.75	9886 ± 310
1766 K, x1 = 0.5	9221 ± 480
1784 K, x1 = 0.75	9853 ± 300
1790 K, x1 = 1	10670 ± 170
1795 K, x1 = 1	10672 ± 170
1796 K, x1 = 1	10652 ± 170
1802 K, x1 = 1	10686 ± 170
1805 K, x1 = 0.5	9118 ± 480
1809 K, x1 = 1	10670 ± 170
1820 K, x1 = 1	10677 ± 180
1822 K, x1 = 0.75	9805 ± 300
1831 K, x1 = 1	10627 ± 180
1843 K, x1 = 1	10654 ± 180
1856 K, x1 = 1	10601 ± 180
1857 K, x1 = 0.75	9728 ± 300
1878 K, x1 = 1	10558 ± 180
1889 K, x1 = 1	10592 ± 180
1890 K, x1 = 1	10575 ± 180
1917 K, x1 = 1	10529 ± 180
1935 K, x1 = 1	10478 ± 180
1951 K, x1 = 1	10465 ± 180

[Pd] [palladium] + [Ni]
[2]
Details	mass density
1474 K, x1 = 0.25	8842 ± 260 kg/m3
1480 K, x1 = 0.5	9527 ± 500 kg/m3
1488 K, x1 = 0.5	9518 ± 500 kg/m3
1510 K, x1 = 0.25	8793 ± 260 kg/m3
1513 K, x1 = 0.5	9495 ± 500 kg/m3
1549 K, x1 = 0.5	9457 ± 490 kg/m3 and 9456 ± 490 kg/m3
1551 K, x1 = 0.25	8757 ± 260 kg/m3
1563 K, x1 = 0.75	10175 ± 300 kg/m3
1586 K, x1 = 0.5	9422 ± 490 kg/m3
1589 K, x1 = 0.75	10157 ± 300 kg/m3
1598 K, x1 = 0.75	10153 ± 300 kg/m3
1611 K, x1 = 0.25	8707 ± 250 kg/m3
1619 K, x1 = 0.75	10117 ± 300 kg/m3
1630 K, x1 = 0.5	9386 ± 490 kg/m3
1653 K, x1 = 0.75	10089 ± 300 kg/m3
1668 K, x1 = 0.25	8661 ± 250 kg/m3
1695 K, x1 = 0.5	9341 ± 490 kg/m3
1701 K, x1 = 0.75	10023 ± 300 kg/m3
1757 K, x1 = 0.25	8586 ± 250 kg/m3
1770 K, x1 = 0.5	9275 ± 490 kg/m3
1774 K, x1 = 0.75	9966 ± 300 kg/m3
1790 K, x1 = 1	10670 ± 170 kg/m3
1795 K, x1 = 1	10672 ± 170 kg/m3
1796 K, x1 = 1	10652 ± 170 kg/m3
1802 K, x1 = 1	10686 ± 170 kg/m3
1809 K, x1 = 1	10670 ± 170 kg/m3
1820 K, x1 = 1	10677 ± 180 kg/m3
1831 K, x1 = 1	10627 ± 180 kg/m3
1835 K, x1 = 0.75	9929 ± 300 kg/m3
1843 K, x1 = 1	10654 ± 180 kg/m3
1856 K, x1 = 1	10601 ± 180 kg/m3
1859 K, x1 = 0.5	9186 ± 480 kg/m3
1870 K, x1 = 0.25	8503 ± 250 kg/m3
1878 K, x1 = 1	10558 ± 180 kg/m3
1889 K, x1 = 1	10592 ± 180 kg/m3
1890 K, x1 = 1	10575 ± 180 kg/m3
1905 K, x1 = 0.75	9819 ± 290 kg/m3
1917 K, x1 = 1	10529 ± 180 kg/m3
1935 K, x1 = 1	10478 ± 180 kg/m3
1951 K, x1 = 1	10465 ± 180 kg/m3
